Test: method code SF-AS, from DOI: 10.1007/bf00778146

Compound | logP
OCC1(Nc2nc(N3CC3)nc(N3CC3)n2)COC(c2ccco2)OC1 (stereo unspecified) | 0.27
CCC1(Nc2nc(N3CC3)nc(N3CC3)n2)COC(C)(C)OC1 | 0.85
CC1(C)OCC(CO)(Nc2nc(N3CC3)nc(N3CC3)n2)CO1 | -0.52
CC(C)C1OCC(CO)(Nc2nc(N3CC3)nc(N3CC3)n2)CO1 (stereo unspecified) | 0.22
OCC1(Nc2nc(N3CC3)nc(N3CC3)n2)COC(c2ccccc2)OC1 (stereo unspecified) | 0.62
OCC(CO)(CO)Nc1nc(N2CC2)nc(N2CC2)n1 | -1.76
CCC(CO)(CO)Nc1nc(N2CC2)nc(N2CC2)n1 | -0.32
OCC(CO)Nc1nc(N2CC2)nc(N2CC2)n1 | -1.54
COc1ccc(C2OCC(CO)(Nc3nc(N4CC4)nc(N4CC4)n3)CO2)cc1OC (stereo unspecified) | 0.89
CC1(C)OCC(Nc2nc(N3CC3)nc(N3CC3)n2)CO1 | 0.11
CC(CO)(CO)Nc1nc(N2CC2)nc(N2CC2)n1 | -0.75
